Assay results as given in ChEMBL document CHEMBL4334464, “From Phenylthiazoles to Phenylpyrazoles: Broadening the Antibacterial Spectrum toward Carbapenem-Resistant Bacteria” (J Med Chem, 2019).
Converted amounts (≈) assume the structure as drawn. The source made the active and inactive calls. No cut-off for these calls is given here.

Assays:
Staphylococcus aureus [1] = test: Antibacterial activity against methicillin-resistant Staphylococcus aureus NRS384-USA300 clinical isolates after 18 to 20 hrs in aerobic condition by CLSI protocol based broth microdilution assay; type: functional
Staphylococcus aureus [2] = test: Antibacterial activity against Methicillin-sensitive Staphylococcus aureus ATCC 6538 clinical isolates after 18 to 20 hrs in aerobic condition by CLSI protocol based broth microdilution assay; type: functional
Staphylococcus aureus [3] = test: Antibacterial activity against Methicillin-resistant Staphylococcus aureus USA700-NRS386 clinical isolates after 18 to 20 hrs in aerobic condition by CLSI protocol based broth microdilution assay; type: functional
[4] = system: Staphylococcus epidermidis; test: Antibacterial activity against Staphylococcus epidermidis NRS101 after 18 to 20 hrs in aerobic condition by CLSI-based broth microdilution assay; type: functional
Enterococcus faecalis = test: Antibacterial activity against vancomycin-resistant Enterococcus faecalis ATCC 51299 clinical isolates after 18 to 20 hrs in aerobic condition by CLSI-based broth microdilution assay; type: functional
Listeria monocytogenes [5] = test: Antibacterial activity against Listeria monocytogenes ATCC 19111 after 18 to 20 hrs in aerobic condition by CLSI-based broth microdilution assay; type: functional
Streptococcus pneumoniae [6] = test: Antibacterial activity against cephalosporin-resistant Streptococcus pneumoniae ATCC 51916 clinical isolates after 18 to 20 hrs by CLSI-based broth microdilution assay; type: functional
Streptococcus pneumoniae [7] = test: Antibacterial activity against methicillin-resistant Streptococcus pneumoniae ATCC 700677 clinical isolates after 18 to 20 hrs by CLSI-based broth microdilution assay; type: functional
Acinetobacter baumannii [8] = test: Antibacterial activity against Acinetobacter baumannii ATCC 19606 clinical isolates after 18 to 20 hrs in aerobic condition by CLSI-based broth microdilution assay; type: functional; details: ATCC 19606 = CIP 70.34 = JCM 6841
Acinetobacter baumannii [9] = test: Antibacterial activity against Acinetobacter baumannii ATCC BAA 1141 clinical isolates after 18 to 20 hrs in aerobic condition by CLSI-based broth microdilution assay; type: functional
Acinetobacter baumannii [10] = test: Antibacterial activity against Acinetobacter baumannii NR 17785 clinical isolates after 18 to 20 hrs in aerobic condition by CLSI-based broth microdilution assay; type: functional
Escherichia coli [11] = test: Antibacterial activity against Escherichia coli ATCC 35150 clinical isolates after 18 to 20 hrs in aerobic condition by CLSI-based broth microdilution assay; type: functional
[12] = Antibacterial activity against Enterobacter cloacae subsp. cloacae ATCC BAA-1143 clinical isolates after 18 to 20 hrs in aerobic condition by CLSI-based broth microdilution assay; type: functional
Salmonella typhimurium [13] = test: Antibacterial activity against Salmonella typhimurium ATCC 700720 after 18 to 20 hrs in aerobic condition by CLSI-based broth microdilution assay; type: functional, Salmonella enterica subsp. enterica serovar Typhimurium; details: Salmonella enterica
Shigella flexneri [14] = test: Antibacterial activity against Shigella flexneri ATCC 9199 clinical isolates after 18 to 20 hrs in aerobic condition by CLSI-based broth microdilution assay; type: functional
Escherichia coli [15] = test: Antibacterial activity against carbapenem-resistant Escherichia coli BAA-2452 clinical isolates after 18 to 20 hrs in aerobic condition by CLSI-based broth microdilution assay; type: functional
Escherichia coli [16] = test: Antibacterial activity against carbapenem-resistant Escherichia coli BAA-2469 clinical isolates after 18 to 20 hrs in aerobic condition by CLSI-based broth microdilution assay; type: functional
Pseudomonas aeruginosa [17] = test: Antibacterial activity against carbapenem-resistant Pseudomonas aeruginosa ATCC 1744 clinical isolates after 18 to 20 hrs in aerobic condition by CLSI-based broth microdilution assay; type: functional
Escherichia coli [18] = test: Inhibition of 6His tagged Escherichia coli UPPP expressed in Escherichia coli C41(DE3) cells preincubated for 15 mins followed by FPP substrate addition and measured after 20 mins by malachite green reagent based assay
[19] = target: T1, Ditrans,polycis-undecaprenyl-diphosphate synthase ((2E,6E)-farnesyl-diphosphate specific) (Escherichia coli (strain K12)) (UniProt P60472); test: Inhibition of Escherichia coli UPPS using FPP/IPP as substrate preincubated for 30 mins followed by substrates addition and measured after 30 mins by malachite green reagent based assay
T1 sequence (whole entry): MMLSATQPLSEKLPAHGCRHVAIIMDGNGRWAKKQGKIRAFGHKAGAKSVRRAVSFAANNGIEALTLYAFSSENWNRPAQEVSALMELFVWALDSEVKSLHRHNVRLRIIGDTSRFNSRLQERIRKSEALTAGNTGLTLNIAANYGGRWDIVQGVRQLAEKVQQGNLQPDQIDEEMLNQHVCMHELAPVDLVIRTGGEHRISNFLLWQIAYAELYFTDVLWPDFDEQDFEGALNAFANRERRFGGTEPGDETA

Staphylococcus aureus [20] = test: Ratio of MBC to MIC for Methicillin-sensitive Staphylococcus aureus ATCC 6538 clinical isolates; type: functional
Staphylococcus aureus [21] = test: Ratio of MBC to MIC for Methicillin-sensitive Staphylococcus aureus NRS107 clinical isolates; type: functional
Enterococcus faecium = test: Ratio of MBC to MIC for vancomycin-resistant Enterococcus faecium ATCC 700221 clinical isolates; type: functional
Listeria monocytogenes [22] = test: Ratio of MBC to MIC for Listeria monocytogenes ATCC 19111 clinical isolates; type: functional
Streptococcus pneumoniae [23] = test: Ratio of MBC to MIC for cephalosporin-resistant Streptococcus pneumoniae ATCC 51916 clinical isolates; type: functional
Acinetobacter baumannii [24] = test: Ratio of MBC to MIC for Acinetobacter baumannii ATCC 19606 clinical isolates; type: functional, ATCC 19606 = CIP 70.34 = JCM 6841
Acinetobacter baumannii [25] = test: Ratio of MBC to MIC for Acinetobacter baumannii NR 17785 clinical isolates; type: functional
Acinetobacter baumannii [26] = test: Ratio of MBC to MIC for Acinetobacter baumannii NR 17786 clinical isolates; type: functional
Escherichia coli [27] = test: Ratio of MBC to MIC for Escherichia coli ATCC 25922 clinical isolates; type: functional
Escherichia coli [28] = test: Ratio of MBC to MIC for Escherichia coli ATCC 1411 clinical isolates; type: functional
[29] = system: Enterobacter cloacae subsp. cloacae; test: Ratio of MBC to MIC for Enterobacter cloacae subsp. cloacae ATCC BAA-1143 clinical isolates; type: functional
Klebsiella pneumoniae [30] = test: Ratio of MBC to MIC for Klebsiella pneumoniae BAA-1706 after 18 to 20 hrs in aerobic condition by CLSI-based broth microdilution assay; type: functional
Klebsiella pneumoniae [31] = test: Ratio of MBC to MIC for Klebsiella pneumoniae BAA-1144 clinical isolates; type: functional
Salmonella enterica = test: Ratio of MBC to MIC for Salmonella enterica NR-170 clinical isolates; type: functional
Salmonella enteritidis = test: Ratio of MBC to MIC for Salmonella enteritidis ATCC 13076 clinical isolates; type: functional, Salmonella enterica subsp. enterica serovar Enteritidis
Salmonella typhimurium [32] = test: Ratio of MBC to MIC for Salmonella typhimurium ATCC 700720 clinical isolates; type: functional, Salmonella enterica subsp. enterica serovar Typhimurium
Shigella flexneri [33] = test: Ratio of MBC to MIC for Shigella flexneri ATCC 9199 clinical isolates; type: functional
Pseudomonas aeruginosa [34] = test: Ratio of MBC to MIC for Pseudomonas aeruginosa ATCC 9027 clinical isolates; type: functional
Pseudomonas aeruginosa [35] = test: Ratio of MBC to MIC for Pseudomonas aeruginosa ATCC 15442 clinical isolates; type: functional
Clostridioides difficile = test: Ratio of MBC to MIC for Clostridium difficile ATCC BAA 1870; type: functional
Pseudomonas aeruginosa [36] = test: microbe, parasite or virus in culture; details: ATCC 25619
Description: Antibacterial activity against Pseudomonas aeruginosa ATCC 25619 clinical isolates after 18 to 20 hrs in aerobic condition by CLSI-based broth microdilution assay

C/C(=N\NC1=NCCN1)c1cnn(-c2ccc(C#CC3CCCC3)cc2)c1C
MIC (Staphylococcus aureus [1]): 4 µg/mL (≈ 10.7 µM) | MIC (Staphylococcus aureus [2]): 1 µg/mL (≈ 2.67 µM) | MIC (Staphylococcus aureus [3]): 4 µg/mL (≈ 10.7 µM) | MIC [4]: 2 µg/mL (≈ 5.34 µM) | MIC (Enterococcus faecalis): 8 µg/mL (≈ 21.4 µM) | MIC (Listeria monocytogenes [5]): 4 µg/mL (≈ 10.7 µM) | MIC (Streptococcus pneumoniae [6]): 8 µg/mL (≈ 21.4 µM) | MIC (Streptococcus pneumoniae [7]): 4 µg/mL (≈ 10.7 µM) | MIC (Acinetobacter baumannii [8]): 16 µg/mL (≈ 42.7 µM) | MIC (Acinetobacter baumannii [9]): 16 µg/mL (≈ 42.7 µM) | MIC (Acinetobacter baumannii [10]): 8 µg/mL (≈ 21.4 µM) | MIC (Escherichia coli [11]): 16 µg/mL (≈ 42.7 µM) | MIC [12]: 32 µg/mL (≈ 85.4 µM) | MIC (Salmonella typhimurium [13]): 64 µg/mL (≈ 171 µM) | MIC (Shigella flexneri [14]): 32 µg/mL (≈ 85.4 µM) | MIC (Escherichia coli [15]): 16 µg/mL (≈ 42.7 µM) | MIC (Escherichia coli [16]): 32 µg/mL (≈ 85.4 µM) | MIC (Pseudomonas aeruginosa [17]): 32 µg/mL (≈ 85.4 µM) | inhibition (Escherichia coli [18]): inactive | inhibition [19]: inactive | Ratio (Staphylococcus aureus [20]): <=2 | Ratio (Staphylococcus aureus [21]): <=2 | Ratio (Enterococcus faecium): <3 | Ratio (Listeria monocytogenes [22]): <3 | Ratio (Streptococcus pneumoniae [23]): <3 | Ratio (Acinetobacter baumannii [24]): >=1 | Ratio (Acinetobacter baumannii [25]): >=1 | Ratio (Acinetobacter baumannii [26]): >=1 | Ratio (Escherichia coli [27]): >=1 | Ratio (Escherichia coli [28]): >=1 | Ratio [29]: > 1 | Ratio (Klebsiella pneumoniae [30]): >=1 | Ratio (Klebsiella pneumoniae [31]): >=1 | Ratio (Salmonella enterica): >=1 | Ratio (Salmonella enteritidis): >=1 | Ratio (Salmonella typhimurium [32]): >=1 | Ratio (Shigella flexneri [33]): >=1 | Ratio (Pseudomonas aeruginosa [34]): >=1 | Ratio (Pseudomonas aeruginosa [35]): >=1 | Ratio (Clostridioides difficile): <3 | MIC (Pseudomonas aeruginosa [36]): 64 µg/mL (≈ 171 µM)
